This note sets out measurements from patent US8211886B2, “Thiadiazinone derivatives” (Merck Patent Gesellschaft mit beschrankter Haftung, priority 2007, dated 2012).

pIC50: −log10 of the molar value.

The target in the test is T1, Met kinase (Homo sapiens, UniProt P08581).
T1 construct: 6His (N); purchased Upstate 14-526; host or cells: Sf21 insect cells (S. frugiperda), baculovirus
T1 sequence (P08581 25-1390): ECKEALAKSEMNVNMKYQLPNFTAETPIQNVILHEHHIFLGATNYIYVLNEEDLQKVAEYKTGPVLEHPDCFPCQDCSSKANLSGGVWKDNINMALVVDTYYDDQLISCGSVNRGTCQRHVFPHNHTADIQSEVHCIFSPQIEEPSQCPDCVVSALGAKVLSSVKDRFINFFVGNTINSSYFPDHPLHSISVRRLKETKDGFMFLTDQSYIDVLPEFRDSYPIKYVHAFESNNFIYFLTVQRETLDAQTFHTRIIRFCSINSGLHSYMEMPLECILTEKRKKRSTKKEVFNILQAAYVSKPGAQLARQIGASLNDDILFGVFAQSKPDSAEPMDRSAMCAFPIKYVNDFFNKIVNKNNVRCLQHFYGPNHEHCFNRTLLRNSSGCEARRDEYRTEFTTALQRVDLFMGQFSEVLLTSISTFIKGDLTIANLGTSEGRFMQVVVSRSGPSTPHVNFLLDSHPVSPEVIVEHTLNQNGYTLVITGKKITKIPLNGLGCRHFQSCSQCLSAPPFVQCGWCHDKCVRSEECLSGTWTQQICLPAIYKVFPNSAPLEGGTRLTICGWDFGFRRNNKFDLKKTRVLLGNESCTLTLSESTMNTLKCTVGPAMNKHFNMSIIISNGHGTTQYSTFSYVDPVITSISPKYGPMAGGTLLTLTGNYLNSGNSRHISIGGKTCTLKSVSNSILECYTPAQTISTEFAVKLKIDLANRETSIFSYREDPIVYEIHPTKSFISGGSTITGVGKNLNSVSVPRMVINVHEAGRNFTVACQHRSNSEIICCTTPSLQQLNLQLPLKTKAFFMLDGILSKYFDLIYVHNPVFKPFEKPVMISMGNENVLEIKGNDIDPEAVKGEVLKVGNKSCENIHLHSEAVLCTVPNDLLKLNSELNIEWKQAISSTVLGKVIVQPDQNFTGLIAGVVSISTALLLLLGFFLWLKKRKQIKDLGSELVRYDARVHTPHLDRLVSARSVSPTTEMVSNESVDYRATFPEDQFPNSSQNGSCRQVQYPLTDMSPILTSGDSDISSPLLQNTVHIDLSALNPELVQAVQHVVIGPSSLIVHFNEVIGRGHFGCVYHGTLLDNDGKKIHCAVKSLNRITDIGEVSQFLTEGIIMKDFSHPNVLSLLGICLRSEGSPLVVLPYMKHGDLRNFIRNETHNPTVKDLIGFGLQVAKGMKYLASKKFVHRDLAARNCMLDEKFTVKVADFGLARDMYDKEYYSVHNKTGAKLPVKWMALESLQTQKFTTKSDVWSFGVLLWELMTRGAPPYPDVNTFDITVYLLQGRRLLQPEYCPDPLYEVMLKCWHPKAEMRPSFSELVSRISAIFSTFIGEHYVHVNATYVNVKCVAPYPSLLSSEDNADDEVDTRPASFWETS
The test can be described thus: Met kinase inhibition (enzyme assay), flashplate method. The test is classed as biochemical. The following applies: 33P-ATP, substrate pAGLT, 3 hrs at room temperature. The source says: According to the manufacturer's data (Met, active, upstate, catalogue No. 14-526), Met kinase is expressed for the purposes of protein production in insect cells (Sf21; S. frugiperda) and subsequent affinity-chromatographic purification as “N-terminal 6His-tagged” recombinant human protein in a baculovirus expression vector.
Flashplate Method (Met Kinase)
The test plates used are 96-well Flashplate^R microtitre plates from Perkin Elmer (Cat. No. SMP200). The components of the kinase reaction described below are pipetted into the assay plate. The Met kinase and the substrate poly Ala-Glu-Lys-Tyr, (pAGLT, 6:2:5:1), are incubated for 3 hrs at room temperature with radioactively labelled ^33P-ATP in the presence and absence of test substances in a total volume of 100 μl. The reaction is terminated using 150 μl of a 60 mM EDTA solution. After incubation for a further 30 min at room temperature, the supernatants are filtered off with suction, and the wells are washed three times with 200 μl of 0.9% NaCl solution each time. The measurement of the bound radioactivity is carried out by means of a scintillation measuring instrument (Topcount NXT, Perkin-Elmer).
The full value used is the inhibitor-free kinase reaction. This should be approximately in the range 6000-9000 cpm. The pharmacological zero value used is staurosporin in a final concentration of 0.1 mM. The inhibitory values (IC50) are determined using the RS1_MTS program.
Kinase reaction conditions per well: • 30 μl of assay buffer • 10 μl of substance to be tested in assay buffer with 10% of DMSO • 10 μl of ATP (final concentration 1 μM cold, 0.35 μCi of ^33P-ATP) • 50 μl of Met kinase/substrate mixture in assay buffer; • (10 ng of enzyme/well, 50 ng of pAGLT/well)
Solutions used: • Assay buffer: • 50 mM HEPES • 3 mM magnesium chloride • 3 μM sodium orthovanadate • 3 mM manganese(II) chloride • 1 mM dithiothreitol (DTT) • pH=7.5 (to be set using sodium hydroxide) • Stop solution: • 60 mM Titriplex III (EDTA) • ^33P-ATP: Perkin-Elmer; • Met kinase: Upstate, Cat. No. 14-526, Stock 1 μg/10 μl; spec. activity 954 U/mg; • Poly-Ala-Glu-Lys-Tyr, 6:2:5:1: Sigma Cat. No. P1152 In-vivo Tests (FIG. 1/1)
Molecule `Cc1cnc(-c2cccc(CN3N=C(c4nccs4)CSC3=O)c2)nc1` [Compound A1, 3-[3-(5-methylpyrimidin-2-yl)benzyl]-5-thiazol-2-yl-3,6-dihydro-1,3,4-thiadiazin-2-one] gave a pIC50 of 6.00 to 8.00.
In turn, `CN(C)/C=N/c1cnc(-c2cccc(CN3N=C(c4nccs4)CSC3=O)c2)nc1` [Compound A2, N,N-Dimethyl-N′-{2-[3-(2-oxo-5-thiazol-2-yl-6H-1,3,4-thiadiazin-3-ylmethyl)phenyl]pyrimidin-5-yl}formamidine] gave a pIC50 of 6.00 to 8.00.
Take `Cc1nc(-c2cccc(CN3N=C(c4nccs4)CSC3=O)c2)no1` [Compound A3, 3-[3-(5-Methyl-1,2,4-oxadiazol-3-yl)benzyl]-5-thiazol-2-yl-3,6-dihydro-1,3,4-thiadiazin-2-one]: the pIC50 was 5.00 to 6.00.
The molecule `Nc1cnc(-c2cccc(CN3N=C(c4cc(F)cc(F)c4)CSC3=O)c2)nc1` [Compound A4, 3-[3-(5-aminopyrimidin-2-yl)benzyl]-5-(3,5-difluorophenyl)-3,6-dihydro-1,3,4-thiadiazin-2-one] had a pIC50 of 6.00 to 8.00.
`COc1ccc(C2=NN(Cc3cccc(-c4ncc(N)cn4)c3)C(=O)SC2)cc1OC` [Compound A5, 3-[3-(5-Aminopyrimidin-2-yl)benzyl]-5-(3,4-dimethoxyphenyl)-3,6-dihydro-1,3,4-thiadiazin-2-one] gave a pIC50 of 6.00 to 8.00.
Then `N#Cc1ccc(C2=NN(Cc3cccc(-c4ncc(N)cn4)c3)C(=O)SC2)cc1` [Compound A6, 4-{3-[3-(5-Aminopyrimidin-2-yl)benzyl]-2-oxo-3,6-dihydro-2H-1,3,4-thiadiazin-5-yl}benzonitrile], with 6.00 to 8.00.
Then `CN(C)CCCOc1cnc(-c2cccc(CN3N=C(c4nccs4)CSC3=O)c2)nc1` [Compound A7, 3-{3-[5-(3-Dimethylaminopropoxy)pyrimidin-2-yl]benzyl}-5-thiazol-2-yl-3,6-dihydro-1,3,4-thiadiazin-2-one], with 6.00 to 8.00; and `CN(C)CCCOc1cnc(-c2cccc(CN3N=C(c4cc(F)cc(F)c4)CSC3=O)c2)nc1` [Compound A8, 5-(3,5-Difluorophenyl)-3-{3-[5-(3-dimethylamino-propoxy)pyrimidin-2-yl]benzyl}-3,6-dihydro-1,3,4-thiadiazin-2-one], with 6.00 to 8.00; and `CN(C)CCCOc1cnc(-c2cccc(CN3N=C(c4ccc(C#N)cc4)CSC3=O)c2)nc1` [Compound A9, 4-(3-{3-[5-(3-Dimethylaminopropoxy)pyrimidin-2-yl]-benzyl}-2-oxo-3,6-dihydro-2H-1,3,4-thiadiazin-5-yl)-benzonitrile], with 6.00 to 8.00.
In the case of `Nc1cnc(-c2cccc(CN3N=C(c4nccs4)CSC3=O)c2)nc1` [Compound A10, 3-[3-(5-Aminopyrimidin-2-yl)benzyl]-5-thiazol-2-yl-3,6-dihydro-1,3,4-thiadiazin-2-one] it was 6.00 to 8.00.
